Patent US20250074891A1 (Anaxis Pharma Pty Ltd., priority 2021, published 2025)

Legend:
MLKL (full length) = MLKL (full length) (Homo sapiens (Human), UniProt Q8NB16); assay: KINOMEscan binding assay, MLKL (full length); conditions: Table 35
Description: Kinase assays. For most assays, kinase-tagged T7 phage strains were grown in parallel in 24-well blocks in an E. coli host derived from the BL21 strain. E. coli were grown to log-phase and infected with T7 phage from a frozen stock (multiplicity of infection=0.4) and incubated with shaking at 32° C. until lysis (90-150 minutes).
The Hill Slope was set to −1.

RIP1 = RIP1 (Homo sapiens (Human), UniProt Q13546); assay: KINOMEscan binding assay, RIP1; conditions: Table 35
RIP1, sequence (Q13546 whole entry): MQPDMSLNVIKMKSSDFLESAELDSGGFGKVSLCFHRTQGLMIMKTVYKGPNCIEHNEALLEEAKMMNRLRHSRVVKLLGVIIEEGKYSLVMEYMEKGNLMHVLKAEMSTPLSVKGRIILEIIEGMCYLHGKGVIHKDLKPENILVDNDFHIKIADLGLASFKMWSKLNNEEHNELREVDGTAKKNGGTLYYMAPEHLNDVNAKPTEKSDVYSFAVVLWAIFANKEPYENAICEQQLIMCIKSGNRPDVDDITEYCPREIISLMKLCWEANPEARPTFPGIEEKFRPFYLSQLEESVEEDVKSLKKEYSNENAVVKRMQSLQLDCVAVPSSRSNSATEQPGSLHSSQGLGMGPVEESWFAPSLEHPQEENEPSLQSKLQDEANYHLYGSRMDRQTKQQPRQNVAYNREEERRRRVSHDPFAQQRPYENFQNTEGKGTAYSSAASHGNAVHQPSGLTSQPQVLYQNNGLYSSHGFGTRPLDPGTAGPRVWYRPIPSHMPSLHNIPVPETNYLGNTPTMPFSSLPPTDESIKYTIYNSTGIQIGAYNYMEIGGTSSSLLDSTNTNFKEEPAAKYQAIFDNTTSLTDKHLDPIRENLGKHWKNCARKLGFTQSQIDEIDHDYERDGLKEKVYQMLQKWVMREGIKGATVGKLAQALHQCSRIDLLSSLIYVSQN

MLKL (full length), sequence (Q8NB16 whole entry): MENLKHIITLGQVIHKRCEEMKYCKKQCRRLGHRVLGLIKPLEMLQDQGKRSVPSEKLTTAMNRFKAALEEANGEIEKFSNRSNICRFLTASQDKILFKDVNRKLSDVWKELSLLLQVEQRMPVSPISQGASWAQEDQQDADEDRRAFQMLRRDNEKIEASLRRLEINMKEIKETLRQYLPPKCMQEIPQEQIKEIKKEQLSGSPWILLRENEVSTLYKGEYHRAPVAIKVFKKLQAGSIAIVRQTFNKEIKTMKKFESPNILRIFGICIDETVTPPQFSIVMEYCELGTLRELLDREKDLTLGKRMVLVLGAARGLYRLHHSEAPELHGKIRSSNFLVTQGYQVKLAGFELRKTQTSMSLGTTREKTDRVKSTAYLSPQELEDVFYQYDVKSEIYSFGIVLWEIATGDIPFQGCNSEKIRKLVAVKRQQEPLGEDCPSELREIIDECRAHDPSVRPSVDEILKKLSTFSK

| Structure (SMILES) | Kd (MLKL (full length)) | Kd (RIP1) |
| --- | --- | --- |
| CCS(=O)(=O)Nc1ccc(-c2n[nH]c(Nc3ccnc(OC)c3)c2C(N)=O)cc1OCc1ccc(F)cc1 [Compound 18, 3-(4-(ethylsulfonamido)-3-((4-fluorobenzyl)oxy)phenyl) 5-((2-methoxypyridin-4-yl)amino)-1H-pyrazole-4-carboxamide] | < 0.01 µM | > 30 µM |
| CCS(=O)(=O)Nc1ccc(-c2n[nH]c(Nc3cccc(C(F)(F)F)n3)c2C(N)=O)cc1OCc1cccnc1 [Compound 33, 3-(4-(ethylsulfon-amido)-3-(pyridin-3-ylmethoxy)phenyl)-5-((6-(trifluoro-methyl)pyridin-2-yl)amino)-1H-pyrazole-4-carboxamide] |  | > 30 µM |
| NC(=O)c1c(-c2ccc(NS(=O)(=O)CC(F)(F)F)cc2)n[nH]c1Nc1cccc(C(F)(F)F)n1 [Compound 43, 3-(4-((2,2,2-trifluoroethyl)sulfonamido)phenyl)-5-((6-(trifluoromethyl)pyridin-2-yl)amino)-1H-pyrazole-4-carboxamide] | < 0.01 µM | > 30 µM |
| NC(=O)c1c(-c2ccc(NS(=O)(=O)CC(F)F)cc2)n[nH]c1Nc1cccc(C(F)(F)F)n1 [Compound 49, 3-(4-((2,2-difluoroethyl)sulfonamido)phenyl)-5-((6-(trifluoromethyl)pyridin-2-yl)amino)-1H-pyrazole-4-carboxamide] | < 0.01 µM | > 30 µM |
| NC(=O)c1c(-c2ccc(NS(=O)(=O)C3CC3)cc2)n[nH]c1Nc1cccc(C(F)(F)F)n1 [Compound 52, 3-(4-(cyclopropanesulfonamido)phenyl)-5-((6-(trifluoromethyl)pyridin-2-yl)amino)-1H-pyrazole-4-carboxamide] | < 0.01 µM | > 30 µM |
| NC(=O)c1c(-c2ccc(NS(=O)(=O)C(F)F)cc2)n[nH]c1Nc1cccc(C(F)(F)F)n1 [Compound 53, 3-(4-((difluoromethyl)sulfonamido)phenyl)-5-((6-(trifluoromethyl)pyridin-2-yl)amino)-1H-pyrazole-4-carboxamide] | < 0.01 µM | > 30 µM |
| CC(C)S(=O)(=O)Nc1ccc(-c2n[nH]c(Nc3cccc(C(F)(F)F)n3)c2C(N)=O)cc1 [Compound 54, 3-(4-((1-methylethyl)sulfonamido)phenyl)-5-((6-(trifluoromethyl)pyridin-2-yl)amino)-1H-pyrazole-4-carboxamide] | < 0.01 µM | > 30 µM |
| NC(=O)c1c(-c2ccc(NS(=O)(=O)Cc3ccc(F)cc3)cc2)n[nH]c1Nc1cccc(C(F)(F)F)n1 [Compound 55, 3-(4-(((4-fluorophenyl)methyl)sulfonamido)phenyl)-5-((6-(trifluoromethyl)pyridin-2-yl)amino)-1H-pyrazole-4-carboxamide] |  | > 30 µM |
| NC(=O)c1c(-c2ccc(NS(=O)(=O)Cc3ccc(Cl)c(Cl)c3)cc2)n[nH]c1Nc1cccc(C(F)(F)F)n1 [Compound 56, 3-(4-((3,4-dichlorophenyl)methylsulfonamido)phenyl)-5-((6-(trifluoromethyl)pyridin-2-yl)amino)-1H-pyrazole-4-carboxamide] |  | > 30 µM |
| NC(=O)c1c(-c2ccc(NS(=O)(=O)Cc3ccccc3Cl)cc2)n[nH]c1Nc1cccc(C(F)(F)F)n1 [Compound 58, 3-(4-(((2-chlorophenyl)methyl)sulfonamido)phenyl)-5-((6-(trifluoromethyl)pyridin-2-yl)amino)-1H-pyrazole-4-carboxamide] |  | > 30 µM |
| CCS(=O)(=O)Nc1ccc(-c2n[nH]c(Nc3cnccn3)c2C(N)=O)cc1OC [Compound 61, 3-(4-(ethylsulfon-amido)-3-methoxy-phenyl)-5-(pyrazin-2-ylamino)-1H-pyrazole-4-carboxamide] |  | > 30 µM |
| CCS(=O)(=O)Nc1ccc(-c2n[nH]c(Nc3cnc(C(C)C)cn3)c2C(N)=O)cc1 [Compound 66, 3-(4-(ethylsulfonamido)phenyl)-5-((5-isopropylpyrazin-2-yl)amino)-1H-pyrazole-4-carboxamide] | < 0.01 µM | > 30 µM |
| CC(C)S(=O)(=O)Nc1ccc(-c2n[nH]c(Nc3cnccn3)c2C(N)=O)cc1 [Compound 71, 3-(4-((1-methylethyl)sulfonamido)phenyl)-5-(pyrazin-2-ylamino)-1H-pyrazole-4-carboxamide] | < 0.01 µM | > 30 µM |
| NC(=O)c1c(-c2ccc(NS(=O)(=O)C3CCCCC3)cc2)n[nH]c1Nc1cnccn1 [Compound 74, 3-(4-(cyclohexanesulfonamido)phenyl)-5-(pyrazin-2-ylamino)-1H-pyrazole-4-carboxamide] |  | > 30 µM |
| NC(=O)c1c(-c2ccc(NS(=O)(=O)Cc3ccccc3)cc2)n[nH]c1Nc1cnccn1 [Compound 77, 3-(4-((phenylmethyl)sulfonamido)phenyl)-5-(pyrazin-2-ylamino)-1H-pyrazole-4-carboxamide] |  | > 30 µM |
| CCS(=O)(=O)Nc1ccc(-c2n[nH]c(Nc3cc(C(F)(F)F)ccn3)c2C(N)=O)cc1 [Compound 85, 3-(4-(ethylsulfonamido)phenyl)-5-((4-(trifluoromethyl)pyridin-2-yl)amino)-1H-pyrazole-4-carboxamide] |  | > 30 µM |
| CCS(=O)(=O)Nc1ccc(-c2n[nH]c(Nc3ccc4ccccc4c3)c2C(N)=O)cc1 [Compound 86, 3-(4-(ethylsulfonamido)phenyl)-5-(naphthalen-2-ylamino)-1H-pyrazole-4-carboxamide] | < 0.01 µM | > 30 µM |

| Structure (SMILES) | Kd (MLKL (full length)) | Kd (RIP1) |
| --- | --- | --- |
| CCS(=O)(=O)Nc1ccc(-c2n[nH]c(Nc3ccc(OC)cn3)c2C(N)=O)cc1 [Compound 88, 3-(4-(ethylsulfonamido)phenyl)-5-((5-methoxypyridin-2-yl)amino)-1H-pyrazole-4-carboxamide] | < 0.01 µM |  |
| CCS(=O)(=O)Nc1ccc(-c2n[nH]c(Nc3ccc4ccccc4n3)c2C(N)=O)cc1 [Compound 89, 3-(4-(ethylsulfonamido)phenyl)-5-(quinolin-2-ylamino)-1H-pyrazole-4-carboxamide] | < 0.01 µM |  |
| CCS(=O)(=O)Nc1ccc(-c2n[nH]c(Nc3cccc(C)n3)c2C(N)=O)cc1 [Compound 94, 3-(4-(ethylsulfonamido)phenyl)-5-((6-methylpyridin-2-yl)amino)-1H-pyrazole-4-carboxamide] |  | > 30 µM |
| CCS(=O)(=O)Nc1ccc(-c2n[nH]c(Nc3cccc(OC)n3)c2C(N)=O)cc1 [Compound 107, 3-(4-(ethylsulfonamido)phenyl)-5-((6-methoxypyridin-2-yl)amino)-1H-pyrazole-4-carboxamide] | < 0.01 µM | > 30 µM |
| C#CCS(=O)(=O)Nc1ccc(-c2n[nH]c(Nc3ccnc(OCCOC)c3)c2C(N)=O)cc1 [Compound 109, 5-((2-(2-methoxyethoxy)pyridin-4-yl)amino)-3-(4-(prop-2-yn-1-ylsulfonamido)phenyl)-1H-pyrazole-4-carboxamide] | < 0.01 µM | > 30 µM |
| COCCOc1cc(Nc2[nH]nc(-c3ccc(NS(=O)(=O)C(F)(F)F)cc3)c2C(N)=O)ccn1 [Compound 114, 5-((2-(2-methoxyethoxy)pyridin-4-yl)amino)-3-(4-((trifluoromethyl)sulfonamido)phenyl)-1H-pyrazole-4-carboxamide] | < 0.01 µM | > 30 µM |
| CCS(=O)(=O)Nc1ccc(-c2n[nH]c(Nc3ccnc(OC)c3)c2C(N)=O)cc1 [Compound 121, 3-(4-(ethylsulfonamido)phenyl)-5-((2-methoxypyridin-4-yl)amino)-1H-pyrazole-4-carboxamide] | < 0.01 µM |  |
| COCCOc1cc(Nc2[nH]nc(-c3ccc(NS(C)(=O)=O)cc3)c2C(N)=O)ccn1 [Compound 122, 5-((2-(2-methoxyethoxy)pyridin-4-yl)amino)-3-(4-(methylsulfonamido)phenyl)-1H-pyrazole-4-carboxamide] | < 0.01 µM | > 30 µM |
| CCS(=O)(=O)Nc1ccc(-c2n[nH]c(Nc3cccc(OCCOC)n3)c2C(N)=O)cc1 [Compound 128, 3-(4-(ethylsulfonamido)phenyl)-5-((6-(2-methoxyethoxy)pyridin-2-yl)amino)-1H-pyrazole-4-carboxamide] |  | > 30 µM |
| NC(=O)c1c(-c2ccc(NS(=O)(=O)Cc3cccc(Cl)c3)cc2)n[nH]c1Nc1ccccn1 [Compound 129, 3-(4-(((3-chlorophenyl)methyl)sulfonamido)phenyl)-5-(pyridin-2-ylamino)-1H-pyrazole-4-carboxamide] |  | > 30 µM |
| NC(=O)c1c(-c2ccc(NS(=O)(=O)CCc3ccccc3)cc2)n[nH]c1Nc1ccccn1 [Compound 130, 3-(4-((2-phenylethyl)sulfonamido)phenyl)-5-(pyridin-2-ylamino)-1H-pyrazole-4-carboxamide] |  | > 30 µM |
| CCS(=O)(=O)Nc1ccc(-c2n[nH]c(Nc3ccccn3)c2C(N)=O)cc1 [Compound 131, 3-(4-(ethylsulfonamido)phenyl)-5-(pyridin-2-ylamino)-1H-pyrazole-4-carboxamide] | < 0.01 µM | > 30 µM |
| NC(=O)c1c(-c2ccc(NS(=O)(=O)c3ccccc3)cc2)n[nH]c1Nc1ccccn1 [Compound 133, 3-(4-(phenylsulfonamido)phenyl)-5-(pyridin-2-ylamino)-1H-pyrazole-4-carboxamide] |  | > 30 µM |
| NC(=O)c1c(-c2ccc(NS(=O)(=O)CC3CCC3)cc2)n[nH]c1Nc1ccccn1 [Compound 134] |  | > 30 µM |
| CCS(=O)(=O)Nc1ccc(-c2n[nH]c(Nc3cnc(C)cn3)c2C(N)=O)cc1OCc1ccc(F)c(Cl)c1 [Compound 150, 3-(3-((3-chloro-4-fluorobenzyl)oxy)-4-(ethylsulfonamido)phenyl)-5-((5-methylpyrazin-2-yl)amino)-1H-pyrazole-4-carboxamide] | < 0.01 µM | > 30 µM |
| CCS(=O)(=O)Nc1ccc(-c2n[nH]c(Nc3cnc(C(C)(C)C)cn3)c2C(N)=O)cc1 [Compound 181, 5-((5-(tert-butyl)pyrazin-2-yl)amino)-3-(4-(ethylsulfonamido)phenyl)-1H-pyrazole-4-carboxamide] | < 0.01 µM | > 30 µM |
